According to ChEMBL document CHEMBL1201862, “PubChem BioAssay data set” (2004):
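48-hour exposure; five concentrations; linearly interpolated endpoints. Here, GI50 denotes the concentration required for 50% inhibition of growth.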 Calls of active or inactive are those of the source. Rule as the data show it: active = GI50 up to about 1.1 µM and inactive = higher.

Key:
Experiment in all cases: NCI-60 cell line screen, 48 h
MDA-MB-435 = tested on: MDA-MB-435
MCF7 = tested on: MCF7
Hs-578T = tested on: Hs-578T
TK-10 = tested on: TK-10
LOX IMVI = tested on: LOX IMVI
MDA-N = tested on: MDA-N
MDA-MB-231 = tested on: MDA-MB-231
A498 = tested on: A498
SN12C = tested on: SN12C
HCC 2998 = tested on: HCC 2998
PC-3 = tested on: PC-3
SNB-75 = tested on: SNB-75
ACHN = tested on: ACHN
HOP-92 = tested on: HOP-92
K562 = tested on: K562
HOP-18 = tested on: HOP-18
786-0 = tested on: 786-0
XF498 = tested on: XF498
DMS-273 = tested on: DMS-273
DMS-114 = tested on: DMS-114

COc1cccc(N/C(C)=C2/CCOC2=O)c1
GI50 (MDA-MB-435): > 10 µM (inactive) | GI50 (MCF7): > 10 µM (inactive) | GI50 (Hs-578T): > 10 µM (inactive) | GI50 (TK-10): > 10 µM (inactive) | GI50 (LOX IMVI): > 10 µM (inactive) | GI50 (MDA-N): > 10 µM (inactive) | GI50 (MDA-MB-231): 6.56 µM (inactive) | GI50 (A498): > 10 µM (inactive) | GI50 (SN12C): > 10 µM (inactive) | GI50 (HCC 2998): > 10 µM (inactive) | GI50 (PC-3): > 10 µM (inactive) | GI50 (SNB-75): > 10 µM (inactive) | GI50 (ACHN): 5.33 µM (inactive)

Cc1sc(Cc2ccccc2)nc1-c1ccc(N)cc1
GI50 (MDA-MB-435): 17.7 µM (inactive) | GI50 (MCF7): 19.5 µM (inactive) | GI50 (HOP-92): 13.8 µM (inactive) | GI50 (Hs-578T): 20.2 µM (inactive) | GI50 (TK-10): 47.5 µM (inactive) | GI50 (LOX IMVI): 15.2 µM (inactive) | GI50 (MDA-MB-231): 26.1 µM (inactive) | GI50 (A498): 29.4 µM (inactive) | GI50 (SN12C): 21.1 µM (inactive) | GI50 (K562): 20.7 µM (inactive) | GI50 (HCC 2998): 19.1 µM (inactive) | GI50 (PC-3): 29.9 µM (inactive) | GI50 (ACHN): 31.2 µM (inactive)

O=C(O)c1ccc([Se][Se]c2ccc(C(=O)O)cc2)cc1
GI50 (HOP-18): 29.4 µM (inactive) | GI50 (786-0): 34 µM (inactive) | GI50 (XF498): 31.7 µM (inactive) | GI50 (DMS-273): 21.9 µM (inactive) | GI50 (TK-10): 22.7 µM (inactive) | GI50 (DMS-114): 20.6 µM (inactive) | GI50 (SN12C): 37.5 µM (inactive) | GI50 (HCC 2998): 35.9 µM (inactive) | GI50 (SNB-75): 33.9 µM (inactive)

NC1C=NNC1=O (configuration not stated)
GI50 (HOP-18): < 0.01 µM (active) | GI50 (XF498): > 100 µM (inactive) | GI50 (DMS-273): > 100 µM (inactive) | GI50 (TK-10): > 100 µM (inactive) | GI50 (LOX IMVI): > 100 µM (inactive) | GI50 (DMS-114): > 100 µM (inactive) | GI50 (SN12C): > 100 µM (inactive) | GI50 (K562): > 100 µM (inactive) | GI50 (HCC 2998): > 100 µM (inactive) | GI50 (SNB-75): > 100 µM (inactive) | GI50 (ACHN): > 100 µM (inactive)

COP(=O)(OC)C(N)CCSC (configuration not stated)
GI50 (786-0): > 100 µM (inactive) | GI50 (MDA-MB-435): > 100 µM (inactive) | GI50 (MCF7): > 100 µM (inactive) | GI50 (HOP-92): > 100 µM (inactive) | GI50 (Hs-578T): > 100 µM (inactive) | GI50 (TK-10): > 100 µM (inactive) | GI50 (LOX IMVI): > 100 µM (inactive) | GI50 (MDA-N): > 100 µM (inactive) | GI50 (SN12C): > 100 µM (inactive) | GI50 (K562): > 100 µM (inactive) | GI50 (PC-3): > 100 µM (inactive) | GI50 (SNB-75): > 100 µM (inactive) | GI50 (ACHN): > 100 µM (inactive)

CS/C(=N\S(=O)(=O)c1ccc(Cl)cc1)NCCN/C(=N/S(=O)(=O)c1ccc(Cl)cc1)SC
GI50 (786-0): 24.8 µM (inactive) | GI50 (MDA-MB-435): > 100 µM (inactive) | GI50 (MCF7): > 100 µM (inactive) | GI50 (HOP-92): 14.2 µM (inactive) | GI50 (TK-10): 31.6 µM (inactive) | GI50 (LOX IMVI): > 100 µM (inactive) | GI50 (MDA-N): > 100 µM (inactive) | GI50 (MDA-MB-231): > 100 µM (inactive) | GI50 (A498): 37.5 µM (inactive) | GI50 (SN12C): > 100 µM (inactive) | GI50 (K562): > 100 µM (inactive) | GI50 (HCC 2998): > 100 µM (inactive) | GI50 (PC-3): 8.43 µM (inactive) | GI50 (SNB-75): 24.4 µM (inactive) | GI50 (ACHN): > 100 µM (inactive)

CCCn1c(CN(Cc2nc3ccccc3n2CCC)Cc2nc3ccccc3n2CCC)nc2ccccc21
GI50 (MDA-MB-435): 3.27 µM (inactive) | GI50 (MCF7): 0.973 µM (active) | GI50 (HOP-92): 3.03 µM (inactive) | GI50 (Hs-578T): 25.6 µM (inactive) | GI50 (TK-10): 15.7 µM (inactive) | GI50 (LOX IMVI): 3.7 µM (inactive) | GI50 (MDA-N): 2.26 µM (inactive) | GI50 (MDA-MB-231): 2.04 µM (inactive) | GI50 (A498): 4.74 µM (inactive) | GI50 (SN12C): 2.01 µM (inactive) | GI50 (K562): 1.23 µM (inactive) | GI50 (HCC 2998): 5.68 µM (inactive) | GI50 (PC-3): 3.31 µM (inactive) | GI50 (SNB-75): 6.79 µM (inactive) | GI50 (ACHN): 2.11 µM (inactive)

O=S1(=O)CS(=O)(=O)OCCCO1
GI50 (786-0): > 100 µM (inactive) | GI50 (MDA-MB-435): > 100 µM (inactive) | GI50 (MCF7): 97.1 µM (inactive) | GI50 (HOP-92): > 100 µM (inactive) | GI50 (Hs-578T): > 100 µM (inactive) | GI50 (TK-10): > 100 µM (inactive) | GI50 (LOX IMVI): > 100 µM (inactive) | GI50 (MDA-N): > 100 µM (inactive) | GI50 (MDA-MB-231): > 100 µM (inactive) | GI50 (A498): > 100 µM (inactive) | GI50 (SN12C): > 100 µM (inactive) | GI50 (K562): > 100 µM (inactive) | GI50 (HCC 2998): > 100 µM (inactive) | GI50 (PC-3): > 100 µM (inactive) | GI50 (SNB-75): 51.8 µM (inactive) | GI50 (ACHN): 52.1 µM (inactive)

CC1(C)CCCC2(C)[C@@H]1CC[C@]13C[C@](C)(CC[C@@H]21)[C@@H]3CO (some centres not stated)
GI50 (XF498): > 100 µM (inactive) | GI50 (HOP-92): > 100 µM (inactive) | GI50 (DMS-273): > 100 µM (inactive) | GI50 (TK-10): > 100 µM (inactive) | GI50 (LOX IMVI): > 100 µM (inactive) | GI50 (DMS-114): > 100 µM (inactive) | GI50 (SN12C): > 100 µM (inactive) | GI50 (K562): > 100 µM (inactive) | GI50 (HCC 2998): > 100 µM (inactive) | GI50 (SNB-75): 46.7 µM (inactive) | GI50 (ACHN): > 100 µM (inactive)

C#C[C@]1(O)[C@@H](CO)O[C@@H](n2ccc(=O)[nH]c2=O)[C@@H]1O
GI50 (786-0): < 0.0121 µM (active) | GI50 (MDA-MB-435): 0.173 µM (active) | GI50 (MCF7): 0.0339 µM (active) | GI50 (HOP-92): 0.132 µM (active) | GI50 (Hs-578T): 1.41 µM (inactive) | GI50 (TK-10): 0.413 µM (active) | GI50 (LOX IMVI): 0.0246 µM (active) | GI50 (MDA-N): 0.0822 µM (active) | GI50 (MDA-MB-231): 0.251 µM (active) | GI50 (A498): 0.724 µM (active) | GI50 (SN12C): < 0.0184 µM (active) | GI50 (K562): < 0.0146 µM (active) | GI50 (HCC 2998): 0.0592 µM (active) | GI50 (PC-3): 0.25 µM (active) | GI50 (SNB-75): 0.357 µM (active) | GI50 (ACHN): 0.0272 µM (active)
